Consider 1 substance from US5130414A, “Isolation and structural elucidation of the cyclic peptide hymenistatin 1” (Arizona Board of Regents, a body corporate of Arizona State …, priority 1989, dated 1992).

This assay relates to murine P388 lymphocytic leukemia (PS system). The assay can be described thus: PS system cell growth inhibition (P388 murine leukemia cell line, N.C.I. Protocol). The class given is cell-based.

Regarding “cyclo [Hymenistatin 1, cyclo [Pro^a -Pro^b -Tyr-Val-Pro^c -Leu-Ili-Ile]]”, the “PS ED50” value worked out at 3.5 µg/mL.
